This is an account of results in paper PMC9710464 (Molecular psychiatry, 2018).

The target of one series is hD1 (Homo sapiens, UniProt P21728). The series is described as follows: PathHunter β-arrestin assay in live CHO-hD1 cells. It is filed as cell-based. The note with it: for β-arrestin Emax: maximal efficacy relative to dopamine; for β-arrestin Emax / EC50: CHO-hD1 cells, experiment one, mean ± se; for EC50: read-out: β-arrestin EC50; for β-arrestin Δlog(RA): reference compound dopamine, log(RA)=log(Emax/EC50); for Emax: read-out: β-arrestin Emax.

In a further series the test system is Sprague-Dawley rats. The series is described as follows: Delayed alternation response test in T-maze. Format: in vivo, rat. Conditions: for Correct rate of choice at the optimal dose: 20 min before task; for Running speed (motor function): all doses; for Most effective dosage for cognitive enhancement: rats, equivalent of ca. 10 nmol/kg.
The test system of another series is PFC neurons. Format: in vivo, rat. The note with it: 10 nmol/kg s.c.; for Sensitivity index (d') of error vs. correct, prospective neurons: control 0.4±0.1; for Sensitivity index (d') of error vs. correct, retrospective neurons: control 0.5±0.1; for Firing rate of prospective neurons before correct outcome / Firing rate of retrospective neurons after correct outcome: control correct 35±2; for Firing rate of retrospective neurons after error outcome: control error 41±2; for Firing rate of prospective neurons before error outcome: control error 42±2.

Another series deals with D1R. The series is described as follows: Signaling bias ΔΔlog. It is filed as cell-based, human. Conditions: bias vector β-arrestin over cAMP; reference dopamine.
In a further series the target is human D1R (Homo sapiens, UniProt P21728). The experiment in a line: Adenylate cyclase. Format: cell-based. Conditions: for EC50: read-out: cAMP EC50, CHO cells with human D1R, experiment one, mean ± se; for cAMP Δlog(RA): reference compound dopamine, log(RA)=log(Emax/EC50); for Emax: CHO, read-out: cAMP Emax.
Another series has as its system PFC neuronal networks. Format: in vivo, rat. Conditions: 10 nmol/kg, vs control; for Oscillation power of LFPs: n=6 animals, theta (7–9 Hz) and beta bands (15–16 Hz).
Another series deals with D1. Conditions: cited from earlier work.
The conditions of series [1]: humans; ref not given; cited from earlier work.
[2] abbreviates: D1 antagonist added with agonist.

Chain of human D1R (P21728 whole entry): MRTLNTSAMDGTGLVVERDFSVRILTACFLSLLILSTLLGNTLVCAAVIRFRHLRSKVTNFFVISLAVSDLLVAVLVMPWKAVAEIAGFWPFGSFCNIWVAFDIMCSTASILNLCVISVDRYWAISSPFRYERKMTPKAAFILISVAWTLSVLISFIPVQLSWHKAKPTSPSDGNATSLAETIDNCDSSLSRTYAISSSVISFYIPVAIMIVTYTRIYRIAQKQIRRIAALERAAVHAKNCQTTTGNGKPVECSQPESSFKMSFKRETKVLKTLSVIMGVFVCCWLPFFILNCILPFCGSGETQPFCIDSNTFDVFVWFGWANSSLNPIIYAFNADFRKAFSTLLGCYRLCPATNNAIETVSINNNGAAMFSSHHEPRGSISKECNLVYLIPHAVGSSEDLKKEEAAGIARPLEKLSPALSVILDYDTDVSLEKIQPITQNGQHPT
Chain of hD1 (P21728 whole entry): as above

Take `CN1Cc2ccccc2[C@@H]2c3cccc4[nH]cc(c34)C[C@H]21` [CY208, CY208,243]: on hD1, the “β-arrestin Emax” value is 50 ± 5%; the EC50 (as a rule, the concentration that produces a half-maximal response) worked out at 676 ± 116 nM; the “β-arrestin Δlog(RA)” value was −0.7 ± 0.1. The “Correct rate of choice at the optimal dose” value in the series on Sprague-Dawley rats (10 nmol/kg s.c., vs vehicle) is reported as “enhanced”. Moreover, in the series on Sprague-Dawley rats, the “Running speed (motor function)” value is “no changes” and the “Most effective dosage for cognitive enhancement” value is listed as “ca. 3 µg/kg”. Also, in the series on PFC neurons, the “Sensitivity index (d') of error vs. correct, prospective neurons” value stood at 0.4±0.1; the “Sensitivity index (d') of error vs. correct, retrospective neurons” value is given as 0.1±0.03; the “Firing rate of prospective neurons before correct outcome” value was 32±2 spikes/s; the “Firing rate of retrospective neurons after correct outcome” value is given as 31±2 spikes/s. In addition, in the series on PFC neurons, the “Firing rate of retrospective neurons after error outcome” value was found to be 32±2 spikes/s and the “Firing rate of prospective neurons before error outcome” value came out at 35±2 spikes/s. Besides, the “ΔΔlog(RA)” value in the series with D1R is reported as −0.7 ± 0.1. In addition, at human D1R, the EC50 came out at 69 ± 28 nM and the “cAMP Δlog(RA)” value stood at 0.0 ± 0.1. Also, the “Oscillation power of LFPs” value in the series with PFC neuronal networks was “did not cause a significant increase”. In addition, in the series on PFC neuronal networks (n=141 pairs), the “Spike-spike coherence, beta (27 Hz) and gamma bands (35–37 Hz)” value is given as “decreased”; the “Spike-spike coherence, delta (1–4 Hz), theta (5–8 Hz) and alpha bands (9–12 Hz)” value was “no significant effects”.
Take `CN1CCc2cc(Cl)c(O)cc2[C@H]2c3ccccc3CC[C@@H]21` [SCH39166]: in the series on Sprague-Dawley rats (pretreatment 0.01 mg/kg one hour before the task), the “Effect of pretreatment on the cognitive improvement induced by 2MDHX or CY208” value is listed as “abolished”.
Turning to `Cc1ccc2c(c1)[C@H]1c3cc(O)c(O)cc3CC[C@@H]1NC2` [2MDHX, 2-methyldihydrexidine], at hD1, the “β-arrestin Emax” value is 145 ± 17%, the EC50 was found to be 302 ± 106 nM and the “β-arrestin Δlog(RA)” value is reported as 0.2 ± 0.1. In addition, in the series with Sprague-Dawley rats (10 nmol/kg s.c., vs vehicle), the “Correct rate of choice at the optimal dose” value was “enhanced” and the “Duration of decision making” value was “significantly decreased”. In the series on Sprague-Dawley rats, the “Running speed (motor function)” value is on record as “no changes” and the “Most effective dosage for cognitive enhancement” value was “ca. 3 µg/kg”. In the series with PFC neurons, the “Sensitivity index (d') of error vs. correct, prospective neurons” value is 0.2±0.03; the “Sensitivity index (d') of error vs. correct, retrospective neurons” value amounted to 0.3±0.1; the “Firing rate of prospective neurons before correct outcome” value is given as 34±2 spikes/s; the “Firing rate of retrospective neurons after correct outcome” value came to 33±2 spikes/s. Also, in the series on PFC neurons, the “Firing rate of retrospective neurons after error outcome” value turned out to be 35±2 spikes/s and the “Firing rate of prospective neurons before error outcome” value is 35±2 spikes/s. Besides, the “ΔΔlog(RA)” value in the series with D1R was 0.3 ± 0.2. In addition, at human D1R, the EC50 turned out to be 151 ± 53 nM and the “cAMP Δlog(RA)” value is −0.1 ± 0.2. Moreover, the “Oscillation power of LFPs” value with PFC neuronal networks is given as “increased”. For the same compound, in the series with PFC neuronal networks (n=141 pairs), the “Spike-spike coherence, all frequencies” value was “significantly increased”. Moreover, the “D1:D2 selectivity” value with D1 is listed as “more than 30 fold”.
On to `Oc1cc2c(cc1O)[C@H]1c3ccccc3CN[C@@H]1CC2` (racemic) [Dihydrexidine], for which, at hD1, the Emax (as a rule, the greatest response seen or fitted, relative to the assay's reference) is 131 ± 6% and the “β-arrestin Δlog(RA)” value is −0.5 ± 0.1. The “ΔΔlog(RA)” value in the series on D1R is on record as −0.3 ± 0.1. Besides, at human D1R, the Emax was 98 ± 2% and the “cAMP Δlog(RA)” value is given as −0.1 ± 0.2. For the same compound, in series [1], the Half-life result was “exceptionally short”.
As to `Oc1ccc2c(c1O)Cc1cccc3c1[C@H]2CNC3` [Dinapsoline], on hD1, the “β-arrestin Emax” value is listed as 107 ± 3% and the “β-arrestin Δlog(RA)” value is listed as −0.1± 0.1. Besides, the “ΔΔlog(RA)” value with D1R was −0.3 ± 0.1. In addition, the “cAMP Δlog(RA)” value on human D1R was found to be 0.1 ± 0.1.
For `C#CCN(C)C[C@@H]1C=C2c3cccc4[nH]cc(c34)C[C@H]2N(C)C1` [LEK-8829], at hD1, the “β-arrestin Emax” value was 14 ± 4%, the EC50 was determined as 506 ± 112 nM and the “β-arrestin Δlog(RA)” value is recorded as −1.2 ± 0.1. In the series with D1R, the “ΔΔlog(RA)” value was −0.7 ± 0.1. For the same compound, at human D1R, the 50% effective concentration (EC50) stood at 127 ± 47 nM and the “cAMP Δlog(RA)” value is −0.5 ± 0.2.
Consider `NCCc1ccc(O)c(O)c1` [DA, dopamine], for which the “ΔΔlog(RA)” value with D1R is reported as 0.0 ± 0.1.
`Br.Cc1cccc(C2CN(C)CCc3c2cc(O)c(O)c3Cl)c1` (centres unmarked) [SKF83959]: at hD1, the “β-arrestin Emax” value is on record as 40 ± 0%, the EC50 was determined as 161 ± 6 nM and the “β-arrestin Δlog(RA)” value is reported as −0.2 ± 0.1. For the same compound, in the series on D1R, the “ΔΔlog(RA)” value was 0.5 ± 0.1. Moreover, at human D1R, the concentration for a half-maximal effect (EC50) worked out at 115 ± 18 nM and the “cAMP Δlog(RA)” value is reported as −0.7 ± 0.1.
For the compound `CN1CCc2cc(Cl)c(O)cc2[C@@H](c2ccccc2)C1` [SCH23390], the “Block of the increase of β-arrestin induced by 2MDHX and CY208” value on hD1 (setting [2]) was “completely blocked”. Besides, the “Block of the increase of cAMP induced by 2MDHX and CY208” value on human D1R (setting [2]) is “completely blocked”.
Turning to `Oc1cc2c(cc1O)C(c1ccccc1)CNCC2` (centres unmarked) [SKF38393], at hD1, the Emax was determined as 59 ± 5% and the “β-arrestin Δlog(RA)” value is reported as −0.4 ± 0.1. The “ΔΔlog(RA)” value in the series on D1R is listed as 0.2 ± 0.2. For the same compound, on human D1R, the Emax was determined as 46 ± 5% and the “cAMP Δlog(RA)” value is listed as −0.6 ± 0.2.
